Earlier results in patent US20210393545A1, “NATURAL PRODUCT COMPOSITION FOR STIMULATING HAIR GROWTH” (priority 2018, published 2021).

Legend:
OR2AT4 = target: T1, OR2AT4 (Homo sapiens, UniProt A6NND4); details: human hair follicles ex vivo
T1 construct: from tissue; host or cells: human hair follicles (outer root sheath epithelium), ex vivo
T1 sequence (A6NND4 1-320): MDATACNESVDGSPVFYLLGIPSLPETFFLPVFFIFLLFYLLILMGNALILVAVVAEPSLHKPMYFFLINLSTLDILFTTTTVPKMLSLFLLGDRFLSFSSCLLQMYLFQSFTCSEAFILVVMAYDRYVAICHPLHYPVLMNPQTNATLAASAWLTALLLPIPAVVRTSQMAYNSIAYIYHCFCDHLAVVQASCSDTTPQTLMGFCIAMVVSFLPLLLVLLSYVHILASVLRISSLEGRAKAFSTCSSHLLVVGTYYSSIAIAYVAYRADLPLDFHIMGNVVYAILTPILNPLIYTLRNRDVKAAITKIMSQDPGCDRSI

[1] = system: testosterone 5 alpha reductase; details: reported in the literature

Row | SMILES | apoptosis (OR2AT4) | human hair growth ex vivo (OR2AT4) | production of IGF-1 (OR2AT4) | 5 alpha reductase activity [1]
1 | CC1=CCC(CCC(C)C(C)O)C1(C)C (stereo not shown) [Sandalore®, 3-methyl-5(2,2,3-Trimethylcyclepent-3-en-1-yl) pentan-2-ol] | decreasing apoptosis | prolongs human hair growth ex vivo | increasing production of the anagen-prolonging growth factor IGF-1 | 
2 | CC(C)c1cc2c(c(O)c1O)[C@@]1(C(=O)O)CCCC(C)(C)[C@@H]1CC2 [carnosic acid] |  |  |  | active ingredient in suppressing 5 alpha reductase activity
